In patent publication US9522890B2, “Compounds acting at multiple prostaglandin receptors giving a general anti-inflammatory response” (Allergan, Inc., priority 2011, dated 2016) one finds Kb data, which are given here for nine compounds.

Structures are written as SMILES.

Format in all cases: cell-based
The target in experiment [1] is T1, human recombinant prostanoid EP2 receptor (Homo sapiens, UniProt P43116).
T1 construct: expressed in transfected cells; co-transfected with chimeric Gqs-HA
Put plainly: FLIPR Ca2+ signaling PG antagonist assay, EP2 receptor stable cell line. As to conditions: HEK-293 EBNA cells with chimeric Gqs, standard agonist PGE2. On the procedure:
(§1) The above compounds were tested for PG antagonist activity as follows using human recombinant prostanoid receptor (DP1, EP1-4, FP, IP and TP) stable cell lines:
(§2) In order to measure the response of Gs and Gi coupled prostanoid receptors as a Ca^2+ signal, chimeric G protein cDNAs were used. Stable cell lines over-expressing human prostanoid DP1, EP1-4, FP, IP, and TP receptors were established as follows:
(§3) Briefly, human prostanoid DP1, EP2, and EP4 receptor cDNAs were co-transfected with chimeric Gqs cDNA containing a haemagglutanin (HA) epitope; human prostanoid EP3 receptors were co-transfected with chimeric Gqi-HA; human EP1, FP, IP, and TP receptor cDNAs were expressed with no exogenous G-proteins. Gqs and Gqi chimeric cDNAs (Molecular Devices, Sunnyvale, Calif., U.S.A.), as well as cDNAs of prostanoid receptors, were cloned into a pCEP4 vector with a hygromycin B selection marker. Transfection into HEK-293 EBNA (Epstein-Barr virus nuclear antigen) cells was achieved by the FuGENE 6 transfection Reagent (Roche Applied Science, Indianapolis, Ind., USA). Stable transfectants were selected according to hygromycin resistance. Because Gqs and Gqi contained an HA epitope, G-protein expression was detected by Western blotting analysis using anti-mouse HA monoclonal antibody and horseradish peroxidase (HRP)-conjugated secondary antibody, while functional expression of prostanoid receptors was detected by FLIPR screening (Matias et al., 2004). These stable cell lines were validated using previously published antagonists at 10 μM against serial dilutions of standard agonists by FLIPR functional assays for Ca^2+ Signaling (as described below).
(§4) Ca^2+ signaling studies were performed using a FLIPR TETRA system (Molecular Devices, Sunnyvale, Calif., USA) in the 384-format. This is a high-throughput instrument for cell-based assays to monitor Ca^2+ signaling associated with GPCRs and ion channels. Cells were seeded at a density of 5×10^4 cells/well in BioCoat poly-D-lysine coated, black wall, clear bottom 384-well plates (BD Biosciences, Franklin lakes, NJ, USA) and allowed to attach overnight in an incubator at 37° C. The cells were then washed twice with HBSS-HEPES buffer (Hanks' balanced salt solution without bicarbonate and phenol red, 20 mM HEPES, pH 7.4) using an ELx405 Select CW Microplate Washer (BioTek, Winooski, Vt., USA). After 60 min of dye-loading in the dark using the Ca^2+-sensitive dye Fluo-4AM (Invitrogen, Carlsbad, Calif., USA), at a final concentration of 2×10^−6M, the plates were washed 4 times with HBSS-HEPES buffer to remove excess dye and leaving 50 μl of buffer in each well. The plates were then placed in the FLIPR TETRA instrument and allowed to equilibrate at 37° C. Compounds were added in a 25 μl volume to each well to give final concentrations of 0.1 μM, 0.3 μM, 1 μM, 3 μM, 10 μM, and 30 μM; or 0.067 μM, 0.1 μM, 0.2 μM, 0.3 μM, 0.67 μM, and 1 μM for cells over-expressing TP receptors. After 4.5 minutes, a 7-point serial dilution of the standard agonist for the corresponding receptor, in a 25 μl volume was injected at the final concentrations from 10^−11M to 10^−5M in 10-fold serial dilution increments for cells expressing human recombinant DP1, EP1, EP2, EP3, EP4, FP, and IP receptors. The dose range for the standard agonist for human recombinant TP receptors was from 10^−12M to 10^−6M. HBSS-HEPES buffer was used as the negative control for the standard agonists. Cells were excited with LED (light emitting diode) excitation at 470-495 nm and emission was measured through an emission filter at 515-575 nm. Assay plates were read for 3.5 minutes using the FLIPR^TETRA. The peak increase in fluorescence intensity was recorded for each well. On each plate, negative controls, dose response of positive controls, and co-treatments of antagonist-agonist for each dose were in triplicates. Standard agonists were as follows: DP=BW 245C, EP1-EP4=PGE2, FP=17-phenyl-PGF2α, IP=Cicaprost, and TP=U-46619. […]

Experiment [2] concerns the target T2, human recombinant prostanoid TP receptor (Homo sapiens, UniProt P21731).
T2 construct: expressed in transfected cells
T2 sequence (P21731 1-343): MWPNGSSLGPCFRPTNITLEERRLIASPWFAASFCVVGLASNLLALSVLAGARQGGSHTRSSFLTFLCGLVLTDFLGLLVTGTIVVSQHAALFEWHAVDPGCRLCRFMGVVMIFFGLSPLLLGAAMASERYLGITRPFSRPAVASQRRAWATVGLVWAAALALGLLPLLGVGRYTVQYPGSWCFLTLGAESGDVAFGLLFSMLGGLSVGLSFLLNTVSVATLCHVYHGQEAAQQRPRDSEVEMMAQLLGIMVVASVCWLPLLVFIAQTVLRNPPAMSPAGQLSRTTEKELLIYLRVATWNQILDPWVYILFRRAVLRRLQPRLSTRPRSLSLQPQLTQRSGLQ
Put plainly: FLIPR Ca2+ signaling PG antagonist assay, TP receptor stable cell line. As to conditions: HEK-293 EBNA cells, standard agonist U-46619. On the procedure:
as §1, §2, §3, §4

Experiment [3] has as its target T3, human recombinant prostanoid DP1 receptor (Homo sapiens, UniProt Q13258).
T3 construct: expressed in transfected cells; co-transfected with chimeric Gqs-HA
T3 sequence (Q13258 1-359): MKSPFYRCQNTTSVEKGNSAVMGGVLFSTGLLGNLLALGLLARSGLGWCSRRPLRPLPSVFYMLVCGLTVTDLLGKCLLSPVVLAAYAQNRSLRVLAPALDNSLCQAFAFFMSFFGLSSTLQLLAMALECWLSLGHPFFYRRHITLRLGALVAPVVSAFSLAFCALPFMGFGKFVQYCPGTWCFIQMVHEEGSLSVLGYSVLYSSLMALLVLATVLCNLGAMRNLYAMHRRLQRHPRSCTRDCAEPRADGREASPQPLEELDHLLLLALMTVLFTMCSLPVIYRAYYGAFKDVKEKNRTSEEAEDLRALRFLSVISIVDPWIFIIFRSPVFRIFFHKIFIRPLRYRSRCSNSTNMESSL
Put plainly: FLIPR Ca2+ signaling PG antagonist assay, DP1 receptor stable cell line. As to conditions: HEK-293 EBNA cells with chimeric Gqs, standard agonist BW 245C; read-out: DP (antagonist Kb). On the procedure:
as §1, §2, §3, §4

For experiment [4], the target named is T4, human recombinant prostanoid EP4 receptor (Homo sapiens, UniProt P35408).
T4 construct: expressed in transfected cells; co-transfected with chimeric Gqs-HA
Put plainly: FLIPR Ca2+ signaling PG antagonist assay, EP4 receptor stable cell line. As to conditions: HEK-293 EBNA cells with chimeric Gqs, standard agonist PGE2. The procedure:
as §1, §2, §3, §4

Experiment [5] has as its target T5, human recombinant prostanoid FP receptor (Homo sapiens, UniProt P43088).
T5 construct: expressed in transfected cells
The experiment in a line: FLIPR Ca2+ signaling PG antagonist assay, FP receptor stable cell line. The settings on record: HEK-293 EBNA cells, standard agonist 17-phenyl-PGF2α. The procedure: as §1, §2, §3, §4

In experiment [6] the target is T6, human recombinant prostanoid IP receptor (Homo sapiens, UniProt P43119).
T6 construct: expressed in transfected cells
The experiment in a line: FLIPR Ca2+ signaling PG antagonist assay, IP receptor stable cell line. The settings on record: HEK-293 EBNA cells, standard agonist Cicaprost. On the procedure: as §1, §2, §3, §4

One may read the Kb as the affinity of an antagonist, worked out from how it opposes an agonist.

T5 sequence (P43088 whole entry): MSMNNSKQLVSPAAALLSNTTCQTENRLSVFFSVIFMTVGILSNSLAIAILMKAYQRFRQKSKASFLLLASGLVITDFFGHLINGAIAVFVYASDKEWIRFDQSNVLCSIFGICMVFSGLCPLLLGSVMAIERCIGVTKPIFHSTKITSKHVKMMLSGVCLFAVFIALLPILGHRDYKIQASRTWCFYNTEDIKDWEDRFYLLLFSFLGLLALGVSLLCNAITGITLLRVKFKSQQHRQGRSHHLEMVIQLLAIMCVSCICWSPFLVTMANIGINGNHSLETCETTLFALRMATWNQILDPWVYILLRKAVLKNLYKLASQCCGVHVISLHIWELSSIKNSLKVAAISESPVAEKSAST
T6 sequence (P43119 whole entry): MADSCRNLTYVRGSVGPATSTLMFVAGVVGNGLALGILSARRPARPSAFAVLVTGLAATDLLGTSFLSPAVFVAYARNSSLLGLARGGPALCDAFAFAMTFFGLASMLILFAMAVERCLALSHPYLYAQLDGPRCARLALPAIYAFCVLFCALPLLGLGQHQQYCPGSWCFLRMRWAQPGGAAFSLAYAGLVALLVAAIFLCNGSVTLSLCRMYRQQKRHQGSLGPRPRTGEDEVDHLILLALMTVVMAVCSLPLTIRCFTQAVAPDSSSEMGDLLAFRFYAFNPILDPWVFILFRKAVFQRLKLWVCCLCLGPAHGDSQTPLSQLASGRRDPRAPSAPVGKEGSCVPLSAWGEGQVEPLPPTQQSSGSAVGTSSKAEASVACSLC
T4 sequence (P35408 whole entry): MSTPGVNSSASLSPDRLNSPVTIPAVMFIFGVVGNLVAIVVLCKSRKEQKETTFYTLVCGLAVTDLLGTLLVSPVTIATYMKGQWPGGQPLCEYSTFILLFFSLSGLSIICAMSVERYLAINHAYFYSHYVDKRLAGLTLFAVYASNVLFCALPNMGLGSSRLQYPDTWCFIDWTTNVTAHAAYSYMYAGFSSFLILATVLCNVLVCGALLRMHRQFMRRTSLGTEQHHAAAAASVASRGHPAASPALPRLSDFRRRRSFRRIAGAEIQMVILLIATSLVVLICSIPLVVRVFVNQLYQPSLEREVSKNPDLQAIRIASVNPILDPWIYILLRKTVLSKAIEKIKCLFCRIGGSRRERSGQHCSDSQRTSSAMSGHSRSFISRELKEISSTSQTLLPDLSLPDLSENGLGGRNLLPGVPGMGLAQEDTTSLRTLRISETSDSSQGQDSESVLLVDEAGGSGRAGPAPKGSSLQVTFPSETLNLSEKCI
T1 sequence (P43116 whole entry): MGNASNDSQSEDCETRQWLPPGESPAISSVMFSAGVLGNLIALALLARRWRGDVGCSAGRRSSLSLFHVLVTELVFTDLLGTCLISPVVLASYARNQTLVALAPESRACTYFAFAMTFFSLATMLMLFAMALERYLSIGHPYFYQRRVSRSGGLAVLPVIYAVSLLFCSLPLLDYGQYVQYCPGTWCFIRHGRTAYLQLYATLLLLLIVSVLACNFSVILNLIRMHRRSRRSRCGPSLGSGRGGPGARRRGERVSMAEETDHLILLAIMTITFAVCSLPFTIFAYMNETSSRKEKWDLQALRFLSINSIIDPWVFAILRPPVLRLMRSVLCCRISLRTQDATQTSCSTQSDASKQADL

Regarding `Cc1cc(C(=O)O)nn1Cc1cc(Cl)ccc1OCC1CCCC1` [Example 1, 1-(5-CHLORO-2-CYCLOPENTYLMETHOXY-BENZYL)-5-METHYL-1H-PYRAZOLE-3-CARBOXYLIC ACID], the Kb in experiment [1] was at least 10000 nM; in experiment [2], below 1 nM; in experiment [3], 800 nM; in experiment [4] it was 800 nM; in experiment [5], 150 nM; in experiment [6], at least 10000 nM.
As for `Cc1cc(C(=O)O)nn1Cc1cc(Br)ccc1OCC1CCCC1` [Example 2, 1-(5-BROMO-2-CYCLOPENTYLMETHOXY-BENZYL)-5-METHYL-1H-PYRAZOLE-3-CARBOXYLIC ACID], the Kb in experiment [1] is at least 10000 nM; in experiment [2] it was below 1 nM; in experiment [3], 400 nM; in experiment [4], 400 nM; in experiment [5], 20 nM; in experiment [6] it was 1300 nM.
As to `Cc1cc(C(=O)O)nn1Cc1cc(C(F)(F)F)ccc1OCC1CCCC1` [Example 3, 1-(2-CYCLOPENTYLMETHOXY-5-TRIFLUOROMETHYL-BENZYL)-5-METHYL-1H-PYRAZOLE-3-CARBOXYLIC ACID], the Kb in experiment [1] was 8900 nM; in experiment [2] it was 1 nM; in experiment [3], 700 nM; in experiment [4], 700 nM; in experiment [5] it was 80 nM; in experiment [6] it was 4000 nM.
For the compound `COc1ccc(COc2ccc(Cl)cc2Cn2nc(C(=O)NS(=O)(=O)c3ccccc3)cc2C)cc1` [Example 4, N-{1-[5-CHLORO-2-(4-METHOXY-BENZYLOXY)-BENZYL]-5-METHYL-1H-PYRAZOLE-3-CARBONYL}-BENZENESULFONAMIDE], the Kb was found to be 4900 nM in experiment [1]; 2 nM in experiment [2]; 800 nM in experiment [3]; 140 nM in experiment [4]; 400 nM in experiment [5]; 900 nM in experiment [6].
As to `Cc1cc(C(=O)NS(=O)(=O)c2ccccc2)nn1Cc1cc(Cl)ccc1OCc1ccc(Cl)cc1` [Example 5, N-{1-[5-CHLORO-2-(4-CHLORO-BENZYLOXY)-BENZYL]-5-METHYL-1H-PYRAZOLE-3-CARBONYL}-BENZENESULFONAMIDE], the Kb in experiment [1] was at least 10000 nM; in experiment [2], 10 nM; in experiment [3], 2600 nM; in experiment [4], 75 nM; in experiment [5], 1700 nM; in experiment [6], 2000 nM.
Regarding `CCC(CC)COc1ccc(Br)cc1Cn1nc(C(=O)O)cc1C` [Example 6, 1-[5-BROMO-2-(2-ETHYL-BUTOXY)-BENZYL]-5-METHYL-1H-PYRAZOLE-3-CARBOXYLIC ACID], the Kb was 6200 nM in experiment [1]; below 1 nM in experiment [2]; 150 nM in experiment [3]; 800 nM in experiment [4]; 35 nM in experiment [5]; 500 nM in experiment [6].
Take `CCC(C)(CC)COc1ccc(Br)cc1Cn1nc(C(=O)O)cc1C` [Example 7, 1-[5-BROMO-2-(2-ETHYL-2-METHYL-BUTOXY)-BENZYL]-5-METHYL-1H-PYRAZOLE-3-CARBOXYLIC ACID]: the Kb in experiment [1] turned out to be 3600 nM; in experiment [2], 11 nM; in experiment [3] it was 150 nM; in experiment [4], 2070 nM; in experiment [5] it was 80 nM; in experiment [6] it was 1700 nM.
Consider `Cc1cc(C(=O)O)nn1Cc1cc(Br)ccc1OCC1CCC1` [Example 8, 1-(5-BROMO-2-CYCLOBUTYLMETHOXY-BENZYL)-5-METHYL-1H-PYRAZOLE-3-CARBOXYLIC ACID], for which the Kb in experiment [1] is at least 10000 nM; in experiment [2], 8 nM; in experiment [3], 130 nM; in experiment [4] it was 700 nM; in experiment [5] it was 8 nM; in experiment [6] it was 5600 nM.
With `Cc1cc(C(=O)O)nn1Cc1cc(Br)ccc1OCC1(C(F)(F)F)CCC1` [Example 9, 1-[5-BROMO-2-(1-TRIFLUOROMETHYL-CYCLOBUTYLMETHOXY)-BENZYL]-5-METHYL-1H-PYRAZOLE-3-CARBOXYLIC ACID], the Kb in experiment [1] is 3300 nM; in experiment [2] it was 10 nM; in experiment [3], 190 nM; in experiment [4], 600 nM; in experiment [5], 30 nM; in experiment [6], at least 10000 nM.
